Consider one compound from patent publication US6800770B2, “Anti-spasticity of an eicosanoid analog” (Virginia Commonwealth University, priority 2002, dated 2004).

Assay [1] concerns spasticity in Biozzi ABH mice. Conditions: 0.05 mg/kg i.v.; baseline vs 30 min after treatment.
Procedure: This was assessed to detect limb stiffness by analysis using a strain gauge (Baker et al 2000). The analogue signal from the strain gauge was amplified and digitally converted using an ComputerBoards Inc PCM-DAS16S/12 card (Amplicon, Brighton, UK). This was captured using Dacquire V10 software (D.Buckwell, Institute of Neurology, UK) and analyzed using Spike 2 software (Cambridge Electronics Design, UK). The hindlimbs were fully extended twice then moved to full flexion against the strain gauge. The mean of 4-8 individual readings per limb was taken for each time point. Results are expressed as means of forces of resistance to flexion (in Newtons) and SEM per group.
Statistical analysis was performed using Sigmastat 2.0 (Jandel/SPSS, USA) using one-way repeated measures analysis of variance (ANOVA) incorporating a pair-wise Student-Newman-Keuls (SNK) test. […] N=13 limbs analyzed from 8 spastic animals.
Arvanil treatment was carried out with and without pretreatment of the animals with SR141617A, SR144528 (known to inhibit CB1 and CB2 receptor function, respectively) and capsazepine, a known antagonist of the vanilloid recpetor (VR-1).
A further assay addresses T1, CB1 (Rattus norvegicus, UniProt P20272).
T1 construct: from whole rat brain membranes; from tissue; host or cells: whole rat brain membranes
In kind it is binding. The conditions noted are these: displacement of [3H]CP55940, whole rat brain membranes; means ± S.D., n=3; read-out: CB1 affinity (Ki).

The target in another assay is T2, human VR1 receptors (Homo sapiens, UniProt Q8NER1).
T2 construct: expressed in transfected cells; host or cells: HEK-hVR1 cells
T2 sequence (Q8NER1 whole entry): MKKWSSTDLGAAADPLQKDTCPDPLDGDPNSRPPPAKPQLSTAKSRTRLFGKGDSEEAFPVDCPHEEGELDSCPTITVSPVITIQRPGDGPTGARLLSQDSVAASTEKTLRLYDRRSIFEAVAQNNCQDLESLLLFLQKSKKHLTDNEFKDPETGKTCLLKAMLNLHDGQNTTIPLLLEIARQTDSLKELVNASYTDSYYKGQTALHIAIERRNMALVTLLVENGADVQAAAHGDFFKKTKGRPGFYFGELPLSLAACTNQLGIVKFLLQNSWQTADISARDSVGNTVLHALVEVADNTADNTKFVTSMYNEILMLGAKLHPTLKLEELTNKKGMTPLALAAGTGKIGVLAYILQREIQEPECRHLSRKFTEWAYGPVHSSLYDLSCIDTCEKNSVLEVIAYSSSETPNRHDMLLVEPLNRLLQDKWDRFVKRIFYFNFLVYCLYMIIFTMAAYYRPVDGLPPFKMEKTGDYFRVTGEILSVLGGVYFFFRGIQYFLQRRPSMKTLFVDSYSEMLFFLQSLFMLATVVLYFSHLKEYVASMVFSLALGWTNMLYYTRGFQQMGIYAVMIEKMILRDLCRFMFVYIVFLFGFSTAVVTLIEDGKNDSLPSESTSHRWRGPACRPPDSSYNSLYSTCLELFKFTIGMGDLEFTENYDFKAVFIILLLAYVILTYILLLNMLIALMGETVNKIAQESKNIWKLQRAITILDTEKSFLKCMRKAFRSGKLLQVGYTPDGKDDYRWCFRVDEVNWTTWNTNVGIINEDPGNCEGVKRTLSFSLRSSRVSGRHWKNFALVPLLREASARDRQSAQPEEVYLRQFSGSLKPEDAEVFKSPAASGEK
The assay can be described thus: Enhancement of [Ca2+] via HEK-hVR1 cells. In kind it is cell-based. An excerpt: J. Pharm. Exp. Ther. 300: 984.

T1 sequence (P20272 whole entry): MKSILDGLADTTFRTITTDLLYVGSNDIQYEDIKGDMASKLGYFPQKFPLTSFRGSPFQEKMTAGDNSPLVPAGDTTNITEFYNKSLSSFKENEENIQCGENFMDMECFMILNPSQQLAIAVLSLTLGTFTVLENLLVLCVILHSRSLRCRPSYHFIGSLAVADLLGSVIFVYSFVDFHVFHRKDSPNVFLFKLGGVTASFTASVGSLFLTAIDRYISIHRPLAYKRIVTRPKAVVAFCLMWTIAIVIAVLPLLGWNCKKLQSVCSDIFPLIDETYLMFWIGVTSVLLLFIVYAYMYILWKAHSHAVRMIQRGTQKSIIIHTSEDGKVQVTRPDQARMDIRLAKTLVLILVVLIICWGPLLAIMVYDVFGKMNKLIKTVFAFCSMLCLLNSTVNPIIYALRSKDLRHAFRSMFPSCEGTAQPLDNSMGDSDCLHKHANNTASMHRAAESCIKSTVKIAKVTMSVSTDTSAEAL

Turning to `CCCCC/C=C\C/C=C\C/C=C\C/C=C\CCCC(=O)N(Cc1ccc(O)c(Cl)c1)Cc1ccc(O)c(Cl)c1` [O-2093, N,N-Di-3-chloro-4-hydroxybenzylarachadonamide], the “decrease in resistance to flexion” value in assay [1] was about 35%. Besides, at CB1, the Ki was 1290 ± 140 nM. Moreover, the Emax on human VR1 receptors (in parentheses in the hVR1 potency column, read-out: hVR1 efficacy (maximal effect as percentage of the effect of 4 μM capsaicin)) was found to be 26.9%. Also, on human VR1 receptors (read-out: hVR1 potency (EC50), means ± S.D., n=3), the EC50 is over 50000 nM.

By Ki is commonly meant a dissociation constant, usually derived from enzyme kinetics or from competition with a known ligand. By EC50 is commonly meant the concentration giving half of the maximal effect.
